Assay results published in US20230167127A1, “COMPOUNDS AND THEIR USE IN THE TREATMENT OF BACTERIAL INFECTION” (Hoffmann-La Roche Inc., priority 2020, published 2023).
Where two headings read alike, the source gives them in different places.

Test system: Escherichia coli ATCC 25922
Assay: 50% growth inhibitory concentration (IC50) determination, Iso-Sensitest broth dilution
Format: cell-based
Details: strain Escherichia coli ATCC 25922, 10-point broth dilution, optical density at 600 nm over 16 h, read-out: Escherichia coli growth inhibition IC50
How it was run: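 Growth was tracked as optical density at 600 nm every 20 minutes for 16 h at 35±2° C. Compounds from DMSO stocks were serially diluted twofold over 10 points (e.g. 50–0.097 μM final) in Iso-Sensitest broth. Inhibition computed in log-phase growth to give IC50.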

[1] = Escherichia coli, ATCC25922, 16 h

In the case of O=C1COc2ncc(N3CC(CC(O)CNC4Cc5cccc(F)c5C4)OC3=O)nc2N1 (single isomer, unassigned; isomer b) [Example 84, 6-[5-[3-[(4-fluoro-2,3-dihydro-1H-inden-2-yl)amino]-2-hydroxypropyl]-2-oxo-1,3-oxazolidin-3-yl]-4H-pyrazino[2,3-b][1,4]oxazin-3-one, Isomer B; formic acid], the IC50 is reported as 217 nM.

Work on CC(=O)NCCOc1ccc2c(c1C#N)CC(CNCCC1CN(c3ccc4c(n3)NC(=O)CO4)C(=O)O1)C2 (stereo not drawn) [Example 56, N-[2-[[4-cyano-2-[[2-[2-oxo-3-(3-oxo-4H-pyrido[3,2-b][1,4]oxazin-6-yl)-1,3-oxazolidin-5-yl]ethylamino]methyl]-2,3-dihydro-1H-inden-5-yl]oxy]ethyl]acetamide] yielded an IC50 [1] of 941 nM.

O=C1COc2ccc(N3CC(CCNCC4Cc5cccc(Cl)c5C4)OC3=O)nc2N1 (single isomer, unassigned; isomer b) [Example 7, 6-[5-[2-[(4-chloro-2,3-dihydro-1H-inden-2-yl)methylamino]ethyl]-2-oxo-1,3-oxazolidin-3-yl]-4H-pyrido[3,2-b][1,4]oxazin-3-one, Isomer B; formic acid] was tested, and the IC50 was under 97.7 nM.

N#Cc1c(OCC2CCCN2)ccc2c1CC(CNCCC1CN(c3ccc4c(n3)NC(=O)CO4)C(=O)O1)C2 (stereo not drawn) [Example 141, 2-[[2-[2-oxo-3-(3-oxo-4H-pyrido[3,2-b][1,4]oxazin-6-yl)-1,3-oxazolidin-5-yl]ethylamino]methyl]-5-(pyrrolidin-2-ylmethoxy)-2,3-dihydro-1H-indene-4-carbonitrile; formic acid] was tested, and the IC50 [1] was 186 nM.

For O=C1COc2ccc(N3CC([C@H]4C[C@H](NC5Cc6cccc(Cl)c6C5)C4)OC3=O)nc2N1 (stereo partly drawn) [Example 17, 6-[5-[trans-3-[(4-chloro-2,3-dihydro-1H-inden-2-yl)amino]cyclobutyl]-2-oxo-1,3-oxazolidin-3-yl]-4H-pyrido[3,2-b][1,4]oxazin-3-one], the IC50 [1] was 823 nM.

Work on O=C1COc2ncc(N3CC(CCNCC4Cc5cc(OCCn6cncn6)cc(F)c5C4)OC3=O)nc2N1 (stereo not drawn) [Example 296, 6-[5-[2-[[4-fluoro-6-[2-(l,2,4-triazol-1-yl)ethoxy]-2,3-dihydro-1H-inden-2-yl]methylamino]ethyl]-2-oxo-1,3-oxazolidin-3-yl]-4H-pyrazino[2,3-b][1,4]oxazin-3-one; formic acid] yielded an IC50 [1] of 381 nM.

For Cc1cnc(-c2nc(OCC3(N)CC3)c(C)c3c2CC(CNCCC2CN(c4ccc5c(n4)NC(=O)CO5)C(=O)O2)C3)s1 (stereo not drawn) [Example 216, 6-[5-[2-[[3-[(1-aminocyclopropyl)methoxy]-4-methyl-1-(5-methyl-1,3-thiazol-2-yl)-6,7-dihydro-5H-cyclopenta[c]pyridin-6-yl]methylamino]ethyl]-2-oxo-1,3-oxazolidin-3-yl]-4H-pyrido[3,2-b][1,4]oxazin-3-one], the IC50 [1] was 211 nM.

With CC(N)COc1cc(C#N)c2c(c1)CC(CNCCC1CN(c3ccc4c(n3)NC(=O)CO4)C(=O)O1)C2 (stereo not drawn) [Example 192, 6-(2-aminopropoxy)-2-[[2-[2-oxo-3-(3-oxo-4H-pyrido[3,2-b][1,4]oxazin-6-yl)-1,3-oxazolidin-5-yl]ethylamino]methyl]-2,3-dihydro-1H-inclene-4-carbonitrile; 2,2,2-trifluoroacetic acid] the IC50 [1] was under 97.7 nM.

CNC(=O)COc1cc(F)c2c(c1)CC(CN1CCC3(CC1)CN(c1cnc4c(n1)NC(=O)CO4)C(=O)O3)C2 (stereo not drawn) [Example 309, 2-[[7-fluoro-2-[[2-oxo-3-(3-oxo-4H-pyrazino[2,3-b][1,4]oxazin-6-yl)-1-oxa-3,8-diazaspiro[4.5]decan-8-yl]methyl]-2,3-dihydro-1H-inden-5-yl]oxy]-N-methylacetamide] gave an IC50 [1] of under 97.7 nM.

In the case of Cc1nccc2c1CC(NCCCc1cn(-c3cnc4c(n3)NC(=O)CO4)c(=O)o1)C2 (single isomer, unassigned; enantiomer a) [Example 369, 6-[5-[3-[(1-Methyl-6,7-dihydro-5H-cyclopenta[c]pyridin-6-yl)amino]propyl]-2-oxo-1,3-oxazol-3-yl]-4H-pyrazino[2,3-b][1,4]oxazin-3-one; formic acid, Enantiomer A], the IC50 [1] is reported as 172 nM.

CNC(=O)COc1nc(C)c2c(c1C)CC(CNCCC1CN(c3ccc4c(n3)NC(=O)CO4)C(=O)O1)C2 (stereo not drawn) [Example 110, 2-[[1,4-dimethyl-6-[[2-[2-oxo-3-(3-oxo-4H-pyrido[3,2-b][1,4]oxazin-6-yl)-1,3-oxazolidin-5-yl]ethylamino]methyl]-6,7-dihydro-5H-cyclopenta[c]pyridin-3-yl]oxy]-N-methylacetamide] gave an IC50 [1] of 311 nM.

O=C1COc2ncc(N3CC4(CCN(CC5Cc6c(F)cc(OCc7cc[nH]n7)c(F)c6C5)CC4)OC3=O)nc2N1 (stereo not drawn) [Example 396, 6-[8-[[4,7-difluoro-5-(1H-pyrazol-3-ylmethoxy)-2,3-dihydro-1H-inden-2-yl]methyl]-2-oxo-1-oxa-3,8-diazaspiro[4.5]decan-3-yl]-4H-pyrazino[2,3-b][1,4]oxazin-3-one] showed an IC50 [1] of 161 nM.

Work on Cc1nccc2c1CC(CNCCc1cn(-c3cnc4c(n3)NC(=O)CO4)c(=O)o1)C2 (stereo not drawn) [Example 371, 6-[5-[2-[(1-methyl-6,7-dihydro-5H-cyclopenta[c]pyridin-6-yl)methylamino]ethyl]-2-oxo-1,3-oxazol-3-yl]-4H-pyrazino[2,3-b][1,4]oxazin-3-one] yielded an IC50 [1] of under 97.7 nM.

Compound Cc1ncc(C#N)c2c1CC(CNCC[C@H]1CN(c3cnc4c(n3)NC(=O)CO4)C(=O)O1)C2 (stereo partly drawn) [Example 364, 1-methyl-6-[[2-[(5S)-2-oxo-3-(3-oxo-4H-pyrazino[2,3-b][1,4]oxazin-6-yl)-1,3-oxazolidin-5-yl]ethylamino]methyl]-6,7-dihydro-5H-cyclopenta[c]pyridine-4-carbonitrile] has an IC50 [1] of under 97.7 nM.

In the case of Cc1ncc(F)c2c1CC(CN1CCC3(CN(c4ccc5c(n4)NC(=O)CO5)C(=O)O3)C(CN)C1)C2 (racemic) [Example 251, 6-[rac-5,6-cis-6-(Aminomethyl)-8-[(4-fluoro-1-methyl-6,7-dihydro-5H-cyclopenta[c]pyridin-6-yl)methyl]-2-oxo-1-oxa-3,8-diazaspiro[4.5]decan-3-yl]-4H-pyrido[3,2-b][1,4]oxazin-3-one], the IC50 is reported as 679 nM.

Compound COc1ncc(F)c2c1CC(CNCCC1CN(c3ccc4c(n3)NC(=O)CO4)C(=O)O1)C2 (stereo not drawn) [Example 70, 6-[5-[2-[(4-fluoro-1-methoxy-6,7-dihydro-5H-cyclopenta[c]pyridin-6-yl)methylamino]ethyl]-2-oxo-oxazolidin-3-yl]-4H-pyrido[3,2-b][1,4]oxazin-3-one] has an IC50 [1] of at most 97.7 nM.

O=C1COc2ccc(N3CC(CCNCC4Cc5ccccc5C4)OC3=O)nc2N1 (stereo not drawn) [Example 87, 6-[5-[2-(2,3-dihydro-1H-inden-2-ylmethylamino)ethyl]-2-oxo-1,3-oxazolidin-3-yl]-4H-pyrido[3,2-b][1,4]oxazin-3-one] gave an IC50 [1] of 584 nM.

NC(CN1CC2(C1)CN(c1ccc3c(n1)NC(=O)CO3)C(=O)O2)C1Cc2cccc(Cl)c2C1 (stereo not drawn) [Example 159, 6-[2-[2-amino-2-(4-chloro-2,3-dihydro-1H-inden-2-yl)ethyl]-6-oxo-5-oxa-2,7-diazaspiro[3.4]octan-7-yl]-4H-pyrido[3,2-b][1,4]oxazin-3-one; formic acid] gave an IC50 [1] of 170 nM.
